These are literature values, as cited in US20240023554A1, “MICROPARTICLE COMPOSITIONS COMPRISING TRIFLUDIMOXAZIN” (BASF SE, priority 2020, published 2024).

For the series the following is noted: background statement.

Take `C#CCN1C(=O)C(F)(F)Oc2cc(F)c(-n3c(=O)n(C)c(=S)n(C)c3=O)cc21` [Trifludimoxazin, 1,5-dimethyl-6-thioxo-3-[2,2,7-trifluoro-3-oxo-4-(prop-2-yn-1-yl)-3,4-dihydro-2H-1,4-benzoxazin-6-yl]-1,3,5-triazinane-2,4-dione]: the solubility in water entry is “only sparingly soluble in water”.
